According to article PMC7815808, “Enzyme and lateral flow monoclonal antibody-based immunoassays to simultaneously determine spirotetramat and spirotetramat-enol in foodstuffs” (Scientific Reports, 2021):

Key:
mAbs to SP and SP-enol = assay: Direct cELISA, binding of analytes and other pesticides by the generated mAbs; design: species or system mouse; conditions: homologous tracer, all mAbs; read-out: IC50 values with the homologous tracer
From the text: Six mouse mAbs were obtained; three were from immunogen BSA‒SPm—named SPm#23, SPm#25, and SPm#216—and three from conjugate BSA‒SPo—named SPo#227, SPo#237, and SPo#243. These antibodies contained κ light chains and were of the IgG1 isotype, except mAb SPm#25 which was IgG2a. The affinity to SP and SP-enol was studied by checkerboard cELISA in the capture antibody-coated direct format, using homologous and heterologous enzyme tracers (with the same or different hapten, respectively, than the immunizing conjugate). SP and SP-enol standards were prepared in PBS (10 mM phosphate buffer, pH 7.4, with 140 mM NaCl) and tracer solutions for the competitive step were prepared in PBS-T (PBS containing 0.05% (v/v) Tween-20). […] Tracers with linker site heterologies were not bound by the antibodies. The only exception was mAb SPm#23 which did recognize the heterologous HRP‒SPh conjugate. For this antibody, the spacer arm of hapten SPh was located at a more proximal site than that of hapten […]. The lowest IC50 value with the homologous tracer was around 3 nM for SP-enol whereas binding to SP was moderate (IC50 values were higher than 30 nM).
(§1) Concerning specificity, the two assayed immunogens (BSA‒SPm and BSA‒SPo) afforded equivalent results. […] Cross-reactivity with the main SP metabolites was studied with antibody SPm#23.
(§2) Microplates were precoated with GAM in order to immobilise the mAb. The competitive step was carried out by mixing the analyte solution or diluted sample with the enzyme tracer solution. Standard curves were built in borosilicate glass tubes from 0.03 to 30 nM by a threefold serial dilution of the most concentrated standard solution, and a blank (no analyte) was also run. Concentrated stock solutions of the analytes in anhydrous DMF were used to prepare the most concentrated standard solution—the DMF concentration was always lower than 0.1% (v/v). The complete immunoassay procedure can be found in the Supplementary Information file.
(§3) Table S1. Specificity of the
(§4) 7. Direct competitive ELISA procedure
(§5) The same protocol previously described for this format was applied.7 Briefly, plates were coated with 100 µL per well of 1 µg/mL GAM solution in carbonate‒bicarbonate buffer, pH 9.6, by overnight incubation at 4 °C. Wells were washed four times with washing solution (150 mM NaCl with 0.05% (v/v) Tween-20) after each incubation step. Then, 100 µL per well of specific mAb solution in PBS-T was added and plates were incubated at room temperature during 1 h. The competitive reaction was carried out by adding 50 µL per well of analyte solution or diluted sample and 50 µL per well of tracer […]
(§6) enzyme substrate solution (2 mg/mL o-phenylendiamine and 0.012% (v/v) H2O2 in 25 mM sodium citrate and 62 mM sodium phosphate buffer, pH 5.4). Ten minutes later, the enzyme reaction was stopped by adding 100 µL per well of 1 M H2SO4.
8. Influence of pH and ionic strength […]
(§7) 7 E. Ceballos-Alcantarilla, D. López-Puertollano, C. Agulló, A. Abad-Fuentes, A. Abad-Somovilla, J. V. Mercader.
Combined heterologies for monoclonal antibody-based immunoanalysis of fluxapyroxad. Analyst 143, 5718‒

[1] = design: method as in PMID 23436572; conditions: cited from earlier work
[2] = Spirotetramat hydrolysis study by HPLC‒MS/MS; assay type: physicochemical; design: content found by HPLC–MS/MS, sample treatment A / content found by HPLC–MS/MS, sample treatment B / content found by HPLC–MS/MS, sample treatment C / content found by HPLC–MS/MS, sample treatment D: unit not given beside the values
Method: (§8) In order to simultaneously quantify SP and SP-enol contents in a sample, an in situ procedure for treating the sample with alkaline solution in order to hydrolyse SP into SP-enol was assessed. SP and SP-enol standard solutions were prepared in MilliQ water and diluted fivefold with 40 mM NaOH. The mixtures were incubated 10 min at room temperature and diluted twofold with dilution buffer (200 mM Tris·HCl buffer, pH 8.0, containing 280 mM NaCl). For the competitive step, enzyme tracer solutions were prepared in TBS-T (100 mM Tris·HCl buffer, pH 8.0, containing 140 mM NaCl and 0.05% (v/v) Tween-20). As shown in the inset of Table 2, the obtained standard curves of SP-enol and hydrolysed SP were almost identical. This hydrolysis procedure was validated by HPLC‒MS/MS. SP and SP-enol aqueous solutions (50 µg/mL) were treated with NaOH and, 10 min later, the pH was lowered as previously described. Then, 10 µL of hydrolysed and diluted sample was transferred into 990 µL of acetonitrile and dried with anhydrous MgSO4. Controls without the hydrolysis step were also evaluated. Finally, the contents of SP, SP-enol, SP-keto, and SP-mono in the organic extracts were quantified (Table 2). […] Those samples were also analysed with the studied direct cELISA by running SP-enol standard solutions that had been incubated in NaOH and diluted with dilution buffer like the samples. […] Consequently, the developed hydrolysis procedure seemed to perform adequately for SP and SP-enol residue quantification as SP-enol equivalents.
SP, SP-enol, SP-keto, and SP-mono standard solutions were prepared by serial dilution in acetonitrile from 1 to 2500 μg/L in amber glass vials and kept at − 20 °C. The injection volume was 5 µL and the column temperature was 45 °C. The analysis was carried out using a C18 reverse phase column with a gradient of 0.2% (v/v) formic acid in water (A) and acetonitrile (B) as mobile phase at a flow rate of 0.3 mL/min. The elution profile was 0‒3 min, from 5% B to 95% B, 3.0‒3.5 min, 95% B, 3.5‒3.6 min, from 95% B to 5% B, and 3.6‒8 min, 5% B. Spectra were acquired in positive ionization multiple reaction monitoring mode with interchannel delay of 0.02 s.

mAb SPm#23 [3] = assay: Antibody specificity (cross-reactivity) of the selected mAb; assay type: binding, mouse; conditions: cross-reactivity of the selected mAb, SP-enol = 100; n=3
Method: as §1, §2, §3, §4, §5, §6
8. Influence of pH and ionic strength
Figure S5. Influence of pH and ionic strength over the Amax and IC50 values of the spirotetramat-enol standard curve of the studied direct cELISA.
as §7
Combined heterologies for monoclonal antibody-based immunoanalysis of fluxapyroxad. Analyst 143, 5718‒ […]

mammals = system: mammals; design: method as in earlier work; conditions: cited from earlier work
[4] = Spirotetramat hydrolysis study by direct cELISA; assay type: physicochemical
Method: as §8

mAb SPm#23 [5] = assay: Optimized direct cELISA (mAb SPm#23 with tracer HRP–SPh), SP-enol standard curve; assay type: binding, mouse; conditions: direct cELISA, heterologous bioconjugate
Method: as §8
The sigmoidal inhibition curve obtained for SP-enol and the final assay conditions of the developed direct cELISA are provided in Table 3. […] The Amax value of the standard curve was near 1.0, the slope was − 1.4, and the background signal was negligible.
as §2
The absorbance of each microplate well was immediately read at 492 nm using a reference wavelength at 650 nm, and values were processed with KCJunior software from BioTek Instruments. The SigmaPlot Version 14.0 was used to fit the experimental values to a standard four-parameter logistic curve. Immunoassay sensitivity was estimated as the concentration of analyte affording a 50% decrease (IC50) of the maximum absorbance (Amax) obtained in the absence of analyte. The LOD of the assay was defined as the IC10 of the sigmoidal inhibition curve. The LOQ was experimentally determined as the lowest analyte concentration that provided accurate and precise results using fortified food samples. […]
as §4
The same protocol previously described for this format was applied.7 Briefly, plates were coated with 100 µL per well of 1 µg/mL GAM solution in carbonate‒bicarbonate buffer, pH 9.6, by overnight incubation at 4 °C. Wells were washed four times with washing solution (150 mM NaCl with 0.05% (v/v) Tween-20) after each incubation step. […]

Structure (SMILES): CCOC(=O)OC1=C(c2cc(C)ccc2C)C(=O)N[C@]12CC[C@@H](OC)CC2 [SP, ethyl cis-8-methoxy-2-oxo-3-(2,5-xylyl)-1-azaspiro[4.5]dec-3-en-4-yl carbonate]
- IC50 (mAbs to SP and SP-enol): > 0.03 µM
- hydrolysis at basic pH values [1]: quickly hydrolyses to form SP-enol
- fate on incubation in basic solution ([2]; 40 mM NaOH, 10 min, room temperature, HPLC‒MS/MS): completely hydrolysed into SP-enol
- content found by HPLC–MS/MS, sample treatment A ([2]; A, SP hydrolysed (40 mM NaOH, 10 min, room temperature)): 0.03
- Recovery (%), sample treatment A ([2]; A, SP hydrolysed, HPLC–MS/MS): 93.4%
- content found by HPLC–MS/MS, sample treatment B ([2]; B, SP without hydrolysis): 109.4
- Recovery (%), sample treatment B ([2]; B, SP without hydrolysis, HPLC–MS/MS): 88.8%
- content found by HPLC–MS/MS, sample treatment C ([2]; C, SP-enol hydrolysed (40 mM NaOH, 10 min, room temperature)): 0.02
- content found by HPLC–MS/MS, sample treatment D ([2]; D, SP-enol without hydrolysis): 0.00
- CR (%) (mAb SPm#23 [3]): 11.8%
- eye irritation (mammals): can be an eye irritant
- skin-sensitization (mammals): may cause skin-sensitization
- toxicity in mammals (mammals): does not show severe toxicity
- recovery measured as SP-enol by direct cELISA ([4]; incubated in NaOH solution (samples A and C)): 85.0%
- recovery measured as SP-enol by direct cELISA ([4]; non-hydrolysed control solution (samples B and D)): could not be quantified
- IC50 value for the sum of spirotetramat and spirotetramat-enol (mAb SPm#23 [5]): 0.1 ng/mL
